Reference: patent publication US5830863A, “Neurokinin A antagonists” (priority 1996, dated 1998)
Residues, ends and D or L forms follow the SMILES beside them.

Assays:
[1] = target: T1, neurokinin A (NKA) receptor (NK-2) (Mesocricetus auratus, UniProt P51144); assay: displacement of I125 labeled NKA from hamster urinary bladder membranes; type: binding
T1 construct: displace I125 labeled NKA from hamster urinary bladder; from tissue; host or cells: hamster urinary bladder (membranes in A1, chopped tissue in A4)
T1 sequence (P51144 1-384): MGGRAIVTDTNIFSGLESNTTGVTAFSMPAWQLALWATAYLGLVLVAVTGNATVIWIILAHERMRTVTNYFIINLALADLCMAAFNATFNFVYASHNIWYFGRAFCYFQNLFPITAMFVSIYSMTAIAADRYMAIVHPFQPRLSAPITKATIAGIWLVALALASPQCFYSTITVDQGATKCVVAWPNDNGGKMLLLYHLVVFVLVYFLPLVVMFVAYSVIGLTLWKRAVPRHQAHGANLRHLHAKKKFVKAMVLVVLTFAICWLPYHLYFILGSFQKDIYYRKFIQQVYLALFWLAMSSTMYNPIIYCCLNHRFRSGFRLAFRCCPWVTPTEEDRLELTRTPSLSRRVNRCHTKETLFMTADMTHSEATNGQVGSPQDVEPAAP
Description: The abscissa (x-axis) logarithmically indicates the concentration in nanomoles of agonist of antagonist of the neurokinin A (NKA) receptor. The ordinate (Y-axis) indicates the observed specific binding for each tested agonist or antagonist measured as a percentage of maximum specific binding.
Agonists tested were NKA and fragments of NKA consisting of the third to tenth (NKA(3-10)) amino acids and the fourth to tenth (NKA(4-10)) amino acids. Values are MEAN±S.E.M. of 6-12 experiments. IC50 values estimated graphically from 50% inhibition point.
Urinary bladders from several hamsters were pooled, minced, and homogenized in 50 mM TRIS-HCl (pH 7.4) containing 120 mM NaCl and 5 mM KCl at 4° C. and centrifuged at 48,000×g for 15 minutes. The pellet was resuspended for 30 minutes in 50 mM TRIS-HCl (pH 7.4) containing 10 mM EDTA and 300 mM KCl at 4° C. The suspension was centrifuged as above and the pellet was washed two times in plain 50 mM TRIS-HCl (pH 7.4) and centrifuged similarly. The tissue was then resuspended in incubation buffer and an aliquot (approximately 3-5 mg tissue) was added to each assay tube to commence the assay. The assay tubes contained incubation buffer consisting of 50 mM TRIS-HCl (pH 7.4), 0.02% BSA, 40 μg/ml bacitracin, 4 μg/ml chymostatin, 4 μg/ml leupeptin, 2 mM MnCl2, 0.1 nM ^125 iodohistidyl^1 -neurokinin A (Amersham Corp.), and concentrations of the title compounds or standards ranging from 0.03 nM to 100 μM. The assay was allowed to proceed to equilibrium for 120 min at room temperature. After this time, the contents of each tube was rapidly filtered over Whatman GF/B filters presoaked in 0.5% BSA and the filters were rapidly washed two times with ice-cold plain 50 mM TRIS-HCl (pH 7.4). Filter-bound radioactivity was quantitated in a gamma counter. Specific binding (maximum) was defined as the difference between binding in the presence and absence of 1 μM unlabeled neurokinin A. Competition of iodinated neurokinin A binding by test compounds or standards was expressed as a percentage of this maximum competition.
Values given indicate the concentration in nanomoles of antagonist to reach the IC50 of the neurokinin A (NKA) receptor. SKLKB82#3 represents a cloned NK-2 receptor cell line; the sample is prepared from the scraped cell pellet for assay as earlier described for the hamster urinary bladder preparations. NK-1 represents a substance P receptor preparation from rat salivary gland; receptors are prepared as earlier described for the hamster urinary bladder preparations. Blank spaces indicate compound has not been tested in that particular assay.

[2] = target: T2, NKA receptor (Mesocricetus auratus, UniProt P51144); assay: phosphatidylinositol (PI) turnover in hamster urinary bladder; type: cell-based; conditions: test compound alone; ID#3 up to 100 μM
T2 construct: displace I125 labeled NKA from hamster urinary bladder; from tissue; host or cells: hamster urinary bladder (membranes in A1, chopped tissue in A4)
T2 sequence (P51144 1-384): T1 sequence (P51144 1-384)
Experimental: The abscissa (x-axis) logarithmically indicates the concentration in nanomolar (nM) of agonist or antagonist of the NKA receptor. The ordinate (y-axis) indicates the observed PI turnover as a percentage of control. […] The ordinate (y-axis) indicates the observed PI turnover as a percentage of control. […] Urinary bladders from several hamsters were pooled and chopped at 350 μm with a tissue chopper. The chopped tissue was then incubated in 37° C. Krebs-Hepes buffer with fresh buffer changes every 15 minutes for 30 minutes. The tissue was then incubated in this buffer containing 100-200 μCi of ^3 H-inositol at 37° C. […] Test compound was also evaluated alone at the indicated concentrations to test for agonist activity. […] 50 μl of the bottom phase (chloroform) was withdrawn from each tube and placed in a counting vial, dried, and counted in scintillation fluid. The material on the columns was washed in order with: 1) 10 ml of water 2) 5 ml of 5 mM disodium tetraborate/60 mM sodium formate 3) 10 ml of 1M ammonium formate in 0.1M formic acid The final (third) wash was collected and one ml was mixed with 6 ml of ACS scintillant and counted. The ratio of these counts (total inositol phosphates) to the corresponding organic phase counts was then calculated for each sample. […]

## CC(C)C[C@@H](CN(C)[C@@H](CC(C)C)C(N)=O)NC(=O)CNC(=O)[C@@H](NC(=O)[C@H](Cc1ccccc1)NC(=O)[C@H](CO)NC(=O)[C@@H](N)CC(=O)O)C(C)C [MDL 29,916, H-Asp-Ser-Phe-Val-Gly-Leu.PSI.(CH2 NCH3)Leu-NH2] (HELM PEPTIDE1{D.S.F.V.G.[CC(C)C[C@@H](CN(C)[C@@H](CC(C)C)C(N)=O)N[*:1]]}$$$$V2.0)
[1]
  IC50: 210 ± 15 nM
[2]
  partial agonist activity (PI turnover): 5%

## CC(C)C[C@@H](CN[C@@H](CC(C)C)C(N)=O)NC(=O)CNC(=O)[C@@H](NC(=O)[C@H](Cc1ccccc1)NC(=O)[C@H](CO)NC(=O)[C@@H](N)CC(=O)O)C(C)C [MDL 28,564, H-Asp-Ser-Phe-Val-Gly-Leu.PSI.(CH2 NH)Leu-NH2] (HELM PEPTIDE1{D.S.F.V.G.[CC(C)C[C@@H](CN[C@@H](CC(C)C)C(N)=O)N[*:1]]}$$$$V2.0)
[1]
  IC50: 157 ± 17 nM
[2]
  partial agonist activity (PI turnover): 12%
